Source: patent US5219884A, “Immunosuppressant” (Taito Co., Ltd., priority 1990, dated 1993)
≈ marks a conversion by molar mass, not a printed value. Read-outs that look alike come from different tables or passages of the source.

Columns and labels:
[1] = test system: human allogenic MLR (peripheral blood lymphocytes); assay: human allogenic MLR-suppressive activity; type: cell-based; conditions: for inhibition at 0.0001 µg/mL / inhibition at 0.001 µg/mL / inhibition at 0.01 µg/mL / inhibition at 0.1 µg/mL / inhibition at 1 µg/mL / inhibition at 10 µg/mL / inhibition at 10 pg/mL: Homo sapiens, read-out: Suppression; for inhibition at 0.0001 µg/mL / inhibition at 0.001 µg/mL / inhibition at 0.01 µg/mL / inhibition at 0.1 µg/mL / inhibition at 1 µg/mL / inhibition at 10 µg/mL / inhibition at 10 pg/mL / IC50: Lymphocyte; for IC50: human allogenic MLR, read-out: 50%-inhibition concentration (IC50)
Protocol: The human allogenic MLR-suppressive activity was assayed as follows:
Human peripheral blood lymphocytes obtained by Ficoll-Paque density gradient centrifugation of normal human peripheral blood were suspended in the RPMI1640 medium supplemented with 10% FCS, placed in plastic dishes, and incubated at 37° C. in an atmosphere of 5% carbon dioxide for 2 hours. After termination of incubation, the supernatant after gentle pipetting was harvested and centrifuged (1000 rpm, for 5 minutes) to obtain plastic-nonadherent cells. The plastic-nonadherent cells were allowed to pass through a nylon-wool column to give nylon-nonadherent cells, and the concentration of the cell suspension was adjusted to 4×10^6 cells/ml by using the RPMI1640 culture medium supplemented with 10% FCS, and used as the responder cell suspension.
The plastic-adherent cells were removed from the plastic dish by vigorous pipetting after addition of phosphate buffered saline supplemented with 5% FCS and 0.02% disodium ethylenediamine-tetraacetic acid (EDTA). The plastic-adherent cells were treated with 40 μg/ml of mitomycin C at 37° C. for 60 minutes, washed three times, and suspended to the concentration of 4×10^6 cells/ml in the RPMI1640 culture medium supplemented with 10% FCS. The resultant suspension was used as the stimulator cell suspension. Fifty μl of the responder cell suspension from the donor A or C was mixed with 50 μl of the stimulator cell suspension from the donor B or D, to which 100 μl of the test substance was added, and cultured at 37° C. in the an atmosphere 5% carbon dioxide for 5 days.
After termination of the culture, 1.0 μCi/well of ^3 H-thymidine was added, and after 18 hours of culture, the cells were harvested by a cell-harvester. The radioactivity incorporated into the cells was measured by a liquid scintillation counter as the index of blastogenic response of lymphocytes in human allogenic MLR. The suppression of human allogenic MLR was evaluated by calculating the percent suppression by the following formula. [formula]

[2] = test system: IL2-dependent mouse cell line CTLL-2; assay: suppression of IL-2 induced 3H-thymidine incorporation of CTLL-2; type: cell-based; conditions: 72 hrs, second run (control 30168 cpm); for inhibition at 0.1 µg/mL / inhibition at 1 µg/mL: Mus musculus, CTLL-2; for inhibition at 0.1 µg/mL: read-out: Suppression
Protocol: IL2-dependent mouse cell line CTLL-2 cells were suspended in the RPMI1640 culture medium supplemented with 30% FCS to a concentration of 2×10^5 cells/ml. The suspension (50 μl) and 50 μl of concanavalin A-stimulated rat spleen cell culture supernatants containing IL2 were added to each well of 96-well microculture plates in which 100 μl of the test substance had been placed. After culturing at 37° C. in an atmosphere of 5% carbon dioxide for 20, 44, or 68 hours, 0.5 μCi/well of ^3 H-thymidine was added, and cultured for 4 hours under the same conditions. After termination of the culture, the cells were harvested by a cell harvester, and the radioactivity incorporated into the cells was measured by a liquid scintillation counter.

[3] = test system: anti-sheep red blood cell antibody production in BALB/c mice; assay: suppression of mouse anti-sheep red blood cell antibody production (PFC); type: in vivo
Protocol: (§1) Males 5- to 7-week-old BALB/c mice were immunized with sheep red blood cells (SRBC), and the spleen was resected three or four days later. By counting the plaque forming cells (PFC), suppressive effect on the production of the anti-sheep red blood cell antibody was examined as follows.
(§2) BALB/c mice were immunized with SRBC (1×10^7 cells/mouse, intravenous administration), and ISP-I in the Example 1 was administered intraperitoneally for 4 consecutive days from the day of immunization. Four days after immunization (the next day of the final administration), the spleen was resected and the anti-sheep red blood cell antibody-producing cells were determined by the direct plaque method. At the same time the body weight of the mouse, wet weight of the thymus and the spleen, and numbers of spleen cells were also determined.
as §2, with “(5×10^7” for “(1×10^7”, “the compound” for “ISP-I”, “5” for “1”, “resected,” for “resected”, “time,” for “time”

[4] = body weight, wet weight of thymus and spleen, number of spleen cells in SRBC-immunized mice; type: in vivo, mouse; conditions: 10 mg/kg/day
Protocol: as §1, §2
as §2, with “(5×10^7” for “(1×10^7”, “the compound” for “ISP-I”, “5” for “1”, “resected,” for “resected”, “time,” for “time”

[5] = Experiment 2, 10 mg/kg/day i.p., 4 days

With CCCCCCC(=O)CCCCCCCCCC(O)C(O)C(N)(CO)C(=O)O (stereo not drawn) [Example 5] the inhibition at 0.0001 µg/mL ([1]; donor A/donor B, 0.0001 μg/ml) was 14.4%, the inhibition at 0.001 µg/mL ([1]; donor A/donor B, 0.001 μg/ml) was 42.8% and the inhibition at 0.01 µg/mL ([1]; donor A/donor B, 0.01 μg/ml) was 59.4%. The inhibition at 0.1 µg/mL ([1]; donor A/donor B, 0.1 μg/ml) was 87.1%, the inhibition at 1 µg/mL ([1]; donor A/donor B, 1 μg/ml) was 85.4% and the inhibition at 10 µg/mL ([1]; donor A/donor B, 10 μg/ml) was 99.8%. The inhibition at 10 pg/mL ([1]; donor C/donor D, 0.00001 μg/ml) was 32.3%, the inhibition at 0.0001 µg/mL ([1]; donor C/donor D, 0.0001 μg/ml) was 54.7% and the inhibition at 0.001 µg/mL ([1]; donor C/donor D, 0.001 μg/ml) was 48.3%. For the same compound, the inhibition at 0.01 µg/mL ([1]; donor C/donor D, 0.01 μg/ml) was 58.1%, the inhibition at 0.1 µg/mL ([1]; donor C/donor D, 0.1 μg/ml) was 84.7% and the inhibition at 1 µg/mL ([1]; donor C/donor D, 1 μg/ml) was 80.5%. The IC50 [1] was 0.35 ng/mL (≈ 0.867 nM), the 3H-thymidine uptake ([1]; donor A/donor B, 0.0001 μg/ml) was 20789 cpm and the 3H-thymidine uptake ([1]; donor A/donor B, 0.001 μg/ml) was 14690 cpm. The 3H-thymidine uptake ([1]; donor A/donor B, 0.01 μg/ml) was 11130 cpm, the 3H-thymidine uptake ([1]; donor A/donor B, 0.1 μg/ml) was 5181 cpm and the 3H-thymidine uptake ([1]; donor A/donor B, 1 μg/ml) was 5548 cpm. The 3H-thymidine uptake ([1]; donor A/donor B, 10 μg/ml) was 2439 cpm, the 3H-thymidine uptake ([1]; donor C/donor D, 0.00001 μg/ml) was 11827 cpm and the 3H-thymidine uptake ([1]; donor C/donor D, 0.0001 μg/ml) was 7941 cpm. The 3H-thymidine uptake ([1]; donor C/donor D, 0.001 μg/ml) was 9057 cpm, the 3H-thymidine uptake ([1]; donor C/donor D, 0.01 μg/ml) was 7346 cpm and the 3H-thymidine uptake ([1]; donor C/donor D, 0.1 μg/ml) was 2746 cpm. For the same compound, the 3H-thymidine uptake ([1]; donor C/donor D, 1 μg/ml) was 3466 cpm, the 3H-thymidine uptake ([2]; 0.1 μg/ml) was 26108 cpm and the 3H-thymidine uptake ([2]; 1 μg/ml) was 1532 cpm. For the same compound, the inhibition at 0.1 µg/mL ([2]; 0.1 μg/ml) was 13.5%, the inhibition at 1 µg/mL ([2]; 1 μg/ml) was 95.1% and the “Number of PFC per 1 × 10^7 cell” value [3, 5] was 5.6 ± 1.7 × 10^3 /1 × 10^7 cell. The “Number of PFC per spleen” value [3, 5] was 12.9 ± 3.9 × 10^4 /spleen, the Body weight ([4]; Experiment 2) was 24 ± 1 g and the “Number of spleen cells” value ([4]; Experiment 2) was 2.3 ± 0.3 × 10^8 cell. For the same compound, the Wet weight spleen ([4]; Experiment 2) was 239 ± 40 mg and the Wet weight thymus ([4]; Experiment 2) was 52 ± 5 mg.

CCCCCCC(O)CCCCCC/C=C/CC(O)C(O)C(N)(CO)C(=O)O (stereo not drawn) [Example 6] showed an inhibition at 0.0001 µg/mL ([1]; donor A/donor B, 0.0001 μg/ml) of 45.2%, an inhibition at 0.001 µg/mL ([1]; donor A/donor B, 0.001 μg/ml) of 56.2% and an inhibition at 0.01 µg/mL ([1]; donor A/donor B, 0.01 μg/ml) of 81.7%. The inhibition at 0.1 µg/mL ([1]; donor A/donor B, 0.1 μg/ml) was 81.3%, the inhibition at 1 µg/mL ([1]; donor A/donor B, 1 μg/ml) was 83.9% and the inhibition at 10 µg/mL ([1]; donor A/donor B, 10 μg/ml) was 90%. For the same compound, the inhibition at 0.0001 µg/mL ([1]; donor C/donor D, 0.0001 μg/ml) was 14%, the inhibition at 0.001 µg/mL ([1]; donor C/donor D, 0.001 μg/ml) was 51.7% and the inhibition at 0.01 µg/mL ([1]; donor C/donor D, 0.01 μg/ml) was 77%. It also gave an inhibition at 0.1 µg/mL ([1]; donor C/donor D, 0.1 μg/ml) of 80.3%, an inhibition at 1 µg/mL ([1]; donor C/donor D, 1 μg/ml) of 86.4% and an inhibition at 10 pg/mL [1] of 6.8%. For the same compound, the IC50 [1] was 0.22 ng/mL (≈ 0.545 nM), the 3H-thymidine uptake ([1]; donor A/donor B, 0.0001 μg/ml) was 14191 cpm and the 3H-thymidine uptake ([1]; donor A/donor B, 0.001 μg/ml) was 11753 cpm. The 3H-thymidine uptake ([1]; donor A/donor B, 0.01 μg/ml) was 6335 cpm, the 3H-thymidine uptake ([1]; donor A/donor B, 0.1 μg/ml) was 6418 cpm and the 3H-thymidine uptake ([1]; donor A/donor B, 1 μg/ml) was 5877 cpm. The 3H-thymidine uptake ([1]; donor A/donor B, 10 μg/ml) was 4564 cpm, the 3H-thymidine uptake ([1]; donor C/donor D, 0.00001 μg/ml) was 16241 cpm and the 3H-thymidine uptake ([1]; donor C/donor D, 0.0001 μg/ml) was 14996 cpm. The 3H-thymidine uptake ([1]; donor C/donor D, 0.001 μg/ml) was 8468 cpm, the 3H-thymidine uptake ([1]; donor C/donor D, 0.01 μg/ml) was 4082 cpm and the 3H-thymidine uptake ([1]; donor C/donor D, 0.1 μg/ml) was 3501 cpm. The 3H-thymidine uptake ([1]; donor C/donor D, 1 μg/ml) was 2448 cpm, the 3H-thymidine uptake ([2]; 0.1 μg/ml) was 7237 cpm and the 3H-thymidine uptake ([2]; 1 μg/ml) was 1346 cpm. The inhibition at 0.1 µg/mL ([2]; 0.1 μg/ml) was 76.2% and the inhibition at 1 µg/mL ([2]; 1 μg/ml) was 95.7%.

CCCCCCC(=O)CCCCCCCCCC1OC(=O)C(N)(CO)C1O (stereo not drawn) [Example 7] showed a 3H-thymidine uptake ([2]; 0.1 μg/ml) of 37960 cpm, a 3H-thymidine uptake ([2]; 1 μg/ml) of 2088 cpm and an inhibition at 0.1 µg/mL ([2]; 0.1 μg/ml) of 0%. The inhibition at 1 µg/mL ([2]; 1 μg/ml) was 93.3%.

Compound CCCCCCC(O)CCCCCC/C=C/CC1OC(=O)C(N)(CO)C1O (stereo not drawn) [Example 8] has a 3H-thymidine uptake ([2]; 0.1 μg/ml) of 7262 cpm, a 3H-thymidine uptake ([2]; 1 μg/ml) of 1591 cpm and an inhibition at 0.1 µg/mL ([2]; 0.1 μg/ml) of 76.1%. For the same compound, the inhibition at 1 µg/mL ([2]; 1 μg/ml) was 94.9%, the “Number of PFC per 1 × 10^7 cell” value ([3]; Table 12B, 10 mg/kg/day) was 6.7 ± 1.2 × 10^3 /1 × 10^7 cell and the “Number of PFC per spleen” value ([3]; Table 12B, 10 mg/kg/day) was 8.5 ± 1.9 × 10^4 /spleen. For the same compound, the Body weight ([4]; Table 12B) was 18 ± 1 g, the “Number of spleen cells” value ([4]; Table 12B) was 1.3 ± 0.2 × 10^8 cell and the Wet weight spleen ([4]; Table 12B) was 103 ± 30 mg. For the same compound, the Wet weight thymus ([4]; Table 12B) was 25 ± 9 mg.

Work on CCCCCCC(O)CCCCCCCCCC(O)C(O)C(N)(CO)C(=O)O (stereo not drawn) [Example 9] yielded a 3H-thymidine uptake ([2]; 0.1 μg/ml) of 33835 cpm, a 3H-thymidine uptake ([2]; 1 μg/ml) of 2247 cpm and an inhibition at 0.1 µg/mL ([2]; 0.1 μg/ml) of 0%. The inhibition at 1 µg/mL ([2]; 1 μg/ml) was 92.7%.

Work on CCCCCCC(O)CCCCCCCCCC1OC(=O)C(N)(CO)C1O (stereo not drawn) [Example 10] yielded a 3H-thymidine uptake ([2]; 0.1 μg/ml) of 28083 cpm, a 3H-thymidine uptake ([2]; 1 μg/ml) of 1844 cpm and an inhibition at 0.1 µg/mL ([2]; 0.1 μg/ml) of 6.9%. The inhibition at 1 µg/mL ([2]; 1 μg/ml) was 94.1%.

In the case of CCCCCCC(=O)CCCCCC/C=C/CC1OC(=O)C(CO)(NC(C)=O)C1O (stereo not drawn) [Example 11], the 3H-thymidine uptake ([2]; 0.1 μg/ml) is reported as 33948 cpm, the 3H-thymidine uptake ([2]; 1 μg/ml) is reported as 4876 cpm and the inhibition at 0.1 µg/mL ([2]; 0.1 μg/ml) is reported as 0%. For the same compound, the inhibition at 1 µg/mL ([2]; 1 μg/ml) was 84%.
